This passage reports Activity results from ChEMBL document CHEMBL1146520, “Sterol and triterpenoid constituents of Verbena littoralis with NGF-potentiating activity” (J Nat Prod, 2003).

The source made the active and inactive calls. The rule behind the calls is not given here.

Holding throughout (type): functional, cell-based
Test [1] concerns PC-12. Kind of test: Enhancement of neurite outgrowth in rat PC12D cells up to 30 uM in absence of nerve growth factor.
Test [2] relates to PC-12. Kind of test: Enhancement of nerve growth factor-stimulated neurite outgrowth in rat PC12D cells at 1 to 3 uM.
The subject of test [3] is PC-12. Description: Enhancement of nerve growth factor-stimulated neurite outgrowth in rat PC12D cells at 3 to 10 uM.

For `CC[C@H](C[C@@H](O)[C@@H](C)[C@H]1CC[C@H]2[C@@H]3[C@H](O)C=C4[C@@H](O)[C@@H](O)CC[C@]4(C)[C@H]3CC[C@]12C)C(C)C`, the result with PC-12 [1] was inactive.
Take `C[C@H]1[C@H](C)CC[C@]2(C(=O)O)CC[C@]3(C)C(=CC[C@@H]4[C@@]5(C)CC[C@H](O)C(C)(C)[C@@H]5CC[C@]43C)[C@H]12`: in the test on PC-12 [1], the outcome was inactive. In addition, the outcome in the test with PC-12 [2] was Active.
Turning to `CC1(C)CC[C@]2(C(=O)O)CC[C@]3(C)C(=CC[C@@H]4[C@@]5(C)CC[C@H](O)C(C)(C)[C@@H]5CC[C@]43C)[C@@H]2C1`, in the test on PC-12 [3], the outcome was Active. Besides, the result in the test with PC-12 [1] was inactive.
On to `CC[C@H](C[C@@H](O)[C@@H](C)[C@H]1CC[C@H]2[C@@H]3[C@H](O)C=C4C[C@@H](O)CC[C@]4(C)[C@H]3CC[C@]12C)C(C)C`, for which the result with PC-12 [3] was Active. The outcome in the test with PC-12 [1] was inactive.
